The conditions of series [1]: background statement; cited from earlier work.
For series [2], the system named is catechol-O-methyltransferase. As to conditions: background statement; cited from earlier work.
Series [3] is described as follows: dobutamine plasma levels in anesthetized rats after intravenous bolus and intranasal saline solution. The format is in vivo. Conditions: rat. As for the experimental part:
According to the present invention, it has been unexpectedly discovered that a catecholamine can be formulated for nasal administration and upon administration achieve equivalent bioavailability as compared to intravenous administration. The purpose of the following study is to examine the bioavailability of the catecholamine dobutamine when administered intranasally and intravenously.
Six male rats weighing 280 g were anesthetized with sodium pentobarbital (50 mg/kg I.P.). Three rats were dosed intravenously with dobutamine hydrochloride at 2.5 mg/kg. Blood samples were taken at 0.5, 2, 4, 6, 10, 15, 20 and 30 minutes for dobutamine plasma analysis. The three remaining rats received dobutamine at 2.5 mg/kg intranasally in a saline solution. Blood samples from these rats were taken at 1, 5, 10, 20, 30, 60 and 120 minutes.
As is known, the one time intravenous administration of dobutamine hydrochloride at 2.5 mg/kg produced a very high dobutamine blood level (greater than 1000 ng/ml) within 30 seconds after administration. The duration of dobutamine in the blood as a result of this method of administration was brief however, lasting only for a period of approximately 30 minutes. For comparison, 1.456 mg of dobutamine hydrochloride was dissolved in 0.2 ml of saline solution and 0.1 ml of this solution was administered intranasally to a 291 g rat to provide a dose of 2.5 mg/kg. […] The intranasal delivery of dobutamine produced a moderate dobutamine blood level of 100 ng/ml after 20 minutes.
The area under the curve (AUC) was calculated with computer assistance employing the trapezoidal method for each route of administration.

The structures appear in SMILES notation. Where a name gives a salt, the structure may show the parent alone. A value given as a limit tells only on which side of the number the result lay.

`CC(CCc1ccc(O)cc1)NCCc1ccc(O)c(O)c1` (racemic) [dobutamine, (+,-) 4-[2-[[3-(p-hydroxyphenyl)-1-methylpropyl]amino]ethyl]pyrocatechol]: the “half-life in the body” value in series [1] is 2 min. In series [2], the “biotransformation by catechol-O-methyltransferase” value is “very rapidly biotransformed”.
Broadly, the AUC is the area under the concentration-time curve, a measure of exposure. For `CC(CCc1ccc(O)cc1)NCCc1ccc(O)c(O)c1` (centres unmarked) [dobutamine hydrochloride], in series [3] (blood, intranasal saline solution 2.5 mg/kg, after 20 minutes, read-out: dobutamine blood level), the concentration at 20 min was 100 ng/mL. In addition, the concentration at 0.5 min in series [3] (blood, intravenous bolus 2.5 mg/kg, within 30 seconds after administration, average of three, read-out: dobutamine blood level) is more than 1000 ng/mL. Further, the AUC at 0.5 h in series [3] (plasma, IV bolus 2.5 mg/kg, trapezoidal method, sampled 0.5-30 minutes, read-out: Area Under the Curve (AUC) (converted)) is 37.1 ng·h/mL. In addition, the AUC at 2 h in series [3] (plasma, intranasal saline solution 2.5 mg/kg, trapezoidal method, sampled 1-120 minutes, read-out: Area Under the Curve (AUC) (converted)) is 188 ng·h/mL. The “persistence of effective blood level” value in series [3] (intranasal saline solution 2.5 mg/kg, after two hours) is reported as “effective blood level remained after two hours”. The “duration of dobutamine in the blood” value in series [3] (intravenous bolus 2.5 mg/kg) was “approximately 30 minutes”.
